Some test systems named below: RXF 393 renal; HOP-92 NSCLC; HT29 colon; RPMI-8226 leukemia; TK-10 renal; SK-MEL-28 melanoma; ACHN renal; A498 renal; CCRF-CEM leukemia; OVCAR-3 ovarian.
Holding throughout (experiment): inhibition of tumour cell growth, NCI panel, 48 h

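Step 1: Grow cells in 96-well plates. Step 2: Expose to compound for 48 hours at 5 concentrations. Step 3: Interpolate endpoints linearly; if unreached, use highest concentration. The concentration for 50% growth inhibition is given as GI50. The concentration for full growth arrest is given as TGI.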 Bounds are passed on as bounds.

As for `COc1ccc2cc(C(=O)/C=C/c3ccccc3OC)ccc2c1`, the GI50 with RXF 393 renal is 2540 nM; in the assay with HOP-92 NSCLC, over 22600 nM; with HT29 colon, 1670 nM; in the assay with RPMI-8226 leukemia it was 1650 nM; in the assay on TK-10 renal it was 2.89 µM; in the assay on SK-MEL-28 melanoma, 21.3 µM. Also, the GI50 was 2970 nM in the assay on ACHN renal, 6450 nM in the assay with A498 renal, 1160 nM in the assay on CCRF-CEM leukemia and 821 nM in the assay with OVCAR-3 ovarian. For the same compound, the TGI is 7.63 µM in the assay on RXF 393 renal; over 50.4 µM in the assay with HOP-92 NSCLC; over 45.5 µM in the assay on HT29 colon; 10.6 µM in the assay with RPMI-8226 leukemia; over 40.1 µM with TK-10 renal; over 94.8 µM with SK-MEL-28 melanoma. The TGI worked out at 15.6 µM in the assay with ACHN renal, 30.7 µM in the assay on A498 renal, 7.52 µM in the assay on CCRF-CEM leukemia and 3.77 µM in the assay on OVCAR-3 ovarian.
In the case of `CCCNNC(=O)c1ccc(CNC(=O)/C=C/c2ccccc2)cc1`, the GI50 in the assay on RXF 393 renal was 180 nM; in the assay with HOP-92 NSCLC, 82.1 nM; in the assay on HT29 colon, 120 nM; in the assay with RPMI-8226 leukemia, 101 nM; in the assay with TK-10 renal, 0.0343 µM; in the assay with SK-MEL-28 melanoma, 0.146 µM. In addition, the GI50 was 143 nM in the assay with ACHN renal, 123 nM with A498 renal, 115 nM in the assay with CCRF-CEM leukemia and 246 nM in the assay with OVCAR-3 ovarian. Further, the TGI with RXF 393 renal was 0.501 µM; with HOP-92 NSCLC, 0.609 µM; with HT29 colon, over 100 µM; in the assay with TK-10 renal, 0.577 µM; in the assay with SK-MEL-28 melanoma, 0.857 µM; in the assay on ACHN renal, 0.592 µM. The TGI was 0.36 µM in the assay on A498 renal, over 100 µM in the assay with CCRF-CEM leukemia and 1.8 µM with OVCAR-3 ovarian.
Turning to `O=[N+]([O-])c1ccc(C2N3CCCCC3[C@@H]3c4[nH]c5ccccc5c4CCN23)cc1` (stereo partly drawn), the TGI was 18.9 µM in the assay on RXF 393 renal; over 100 µM in the assay with HOP-92 NSCLC; 16 µM in the assay on HT29 colon; over 100 µM in the assay with RPMI-8226 leukemia; 51.1 µM with TK-10 renal; 42 µM with SK-MEL-28 melanoma. Besides, the TGI in the assay on ACHN renal turned out to be 43.8 µM; with A498 renal, 36.5 µM; in the assay on CCRF-CEM leukemia, 64.4 µM; in the assay on OVCAR-3 ovarian it was 38.6 µM.
Consider `CSc1ccc2c(c1)C(=O)c1c-2n(CCCN=[N+]=[N-])c(=O)c2cc([N+](=O)[O-])ccc12`, for which the GI50 with RXF 393 renal is over 34400 nM; in the assay on HOP-92 NSCLC it was 5240 nM; with HT29 colon it was 4300 nM; in the assay on RPMI-8226 leukemia, 1720 nM; in the assay with TK-10 renal, over 100 µM; in the assay on SK-MEL-28 melanoma it was 51.4 µM. Besides, the GI50 with ACHN renal was 528 nM; in the assay with CCRF-CEM leukemia it was 239 nM; in the assay with OVCAR-3 ovarian, 8870 nM. Further, the TGI with RXF 393 renal is over 100 µM; with HOP-92 NSCLC, over 100 µM; with HT29 colon it was over 100 µM; in the assay with RPMI-8226 leukemia it was 23.2 µM; with TK-10 renal, over 100 µM; in the assay on SK-MEL-28 melanoma, over 100 µM. In addition, the TGI was over 100 µM in the assay with ACHN renal, over 22.3 µM in the assay with A498 renal, 10.9 µM in the assay on CCRF-CEM leukemia and over 89.5 µM with OVCAR-3 ovarian.
Regarding `COC(=O)/C(Cl)=C1/CC1COCc1ccccc1` (stereo not drawn), the TGI is 37.8 µM in the assay with RXF 393 renal; 50.4 µM in the assay on HOP-92 NSCLC; 58 µM in the assay with HT29 colon; 58.3 µM in the assay with RPMI-8226 leukemia; over 100 µM with TK-10 renal; 47.4 µM in the assay with SK-MEL-28 melanoma. Also, the TGI with ACHN renal was 81.6 µM; in the assay on A498 renal it was 96.9 µM; in the assay on CCRF-CEM leukemia it was 43.5 µM; in the assay with OVCAR-3 ovarian it was 52.5 µM.
On to `Cn1cc(C2=C(c3cccc(NCC(O)CO)c3)C(=O)NC2=O)c2cc(Cl)ccc21` (stereo not drawn), for which the GI50 is 2820 nM in the assay with RXF 393 renal; 8160 nM with HOP-92 NSCLC; 2780 nM in the assay with HT29 colon; 5560 nM in the assay on RPMI-8226 leukemia; 5.67 µM in the assay with TK-10 renal; 5.68 µM in the assay with SK-MEL-28 melanoma. Also, the GI50 in the assay with ACHN renal is 3530 nM; in the assay on A498 renal, 81.7 nM; in the assay on CCRF-CEM leukemia it was 3920 nM; in the assay with OVCAR-3 ovarian it was 1060 nM. The TGI with RXF 393 renal turned out to be 7.18 µM; with HOP-92 NSCLC it was 14.1 µM; with HT29 colon, 11.8 µM; with RPMI-8226 leukemia it was 13.9 µM; in the assay with TK-10 renal, 16.8 µM; in the assay with SK-MEL-28 melanoma, 16.1 µM. Moreover, the TGI is over 19.6 µM with ACHN renal, 4.43 µM with A498 renal, over 21.8 µM in the assay on CCRF-CEM leukemia and 7.78 µM in the assay with OVCAR-3 ovarian.
Turning to `Cn1c2ccccc2c(=S)c2cc(NC(=O)CCCCC(=O)Nc3ccc4c(c3)c(=S)c3ccccc3n4C)ccc21`, the TGI in the assay on RXF 393 renal, in the assay with HOP-92 NSCLC, in the assay with HT29 colon, with RPMI-8226 leukemia, in the assay with TK-10 renal and with SK-MEL-28 melanoma was over 100 µM in each case. In addition, the TGI in the assay on ACHN renal, in the assay on A498 renal, in the assay with CCRF-CEM leukemia and with OVCAR-3 ovarian was over 100 µM in each case.
As for `N=c1c2c(=O)n3c(nc2nc2sc4ccc(Cl)cc4n12)-c1ccccc1Sc1ccccc1-3`, the GI50 was 3230 nM in the assay with RXF 393 renal; 762 nM in the assay with HOP-92 NSCLC; 3800 nM in the assay with HT29 colon; 1440 nM in the assay on RPMI-8226 leukemia; 4.3 µM with TK-10 renal; 3.91 µM in the assay on SK-MEL-28 melanoma. Moreover, the GI50 in the assay on ACHN renal is 2610 nM; in the assay on A498 renal, 371 nM; with CCRF-CEM leukemia, 2320 nM; in the assay with OVCAR-3 ovarian it was 1890 nM. Besides, the TGI with RXF 393 renal is 16.2 µM; in the assay on HOP-92 NSCLC, 6.08 µM; in the assay with HT29 colon, 18 µM; in the assay on RPMI-8226 leukemia, over 100 µM; in the assay on TK-10 renal, 47.1 µM; in the assay with SK-MEL-28 melanoma it was 16.4 µM. The TGI was 16.9 µM with ACHN renal, 3.6 µM with A498 renal, over 100 µM in the assay with CCRF-CEM leukemia and 8.27 µM in the assay on OVCAR-3 ovarian.
In the case of `COc1ccc(-c2oncc2-c2cc(OC)c3c(c2)OCO3)cc1`, the GI50 with RXF 393 renal is 2900 nM; with HOP-92 NSCLC it was 2080 nM; with HT29 colon, 1690 nM; in the assay with RPMI-8226 leukemia, 3930 nM; in the assay with TK-10 renal, 7.3 µM; in the assay with SK-MEL-28 melanoma, 3.21 µM. For the same compound, the GI50 with ACHN renal was 4810 nM; with A498 renal, 1490 nM; in the assay with CCRF-CEM leukemia, 2200 nM; with OVCAR-3 ovarian, 3150 nM. For the same compound, the TGI in the assay on RXF 393 renal was 20.3 µM; in the assay on HOP-92 NSCLC, 28.6 µM; in the assay with HT29 colon, 13.7 µM; in the assay with RPMI-8226 leukemia, over 39.5 µM; in the assay with TK-10 renal, over 100 µM; with SK-MEL-28 melanoma, over 100 µM. Moreover, the TGI is over 100 µM in the assay with ACHN renal, 7.4 µM in the assay on A498 renal, over 43.6 µM with CCRF-CEM leukemia and 39 µM in the assay with OVCAR-3 ovarian.

These data come from PubChem BioAssay (NCI).
